These results are taken from patent EP4589010A1, “SCREENING METHOD FOR OFFENSIVE ODOR SUPPRESSING MATERIAL” (priority 2022, dated 2024).

SMILES strings stand for the structures.

Assay [1] has as its system broadly tuned olfactory receptor OR2W1. As to conditions: cited from earlier work.
Assay [2] deals with olfactory receptor OR2C1. Description: Luciferase (GloSensor cAMP) assay, response of olfactory receptor to hexanal. Format: cell-based, human. As to conditions: HEK293T cells expressing OR2C1; various hexanal concentrations; Figure 1. How it is done: (§1) 0.05 µg of human olfactory receptor gene expression vector, 0.01 µg of RTP1S vector, and 0.01 µg of firefly luciferase vector pGloSensor™-22F cAMP Plasmid (Promega) containing CMV promoter were dissolved in 10 µL of Opti-MEM I (Gibco) to prepare a gene solution (per well). HEK293T cells were seeded at 100 µL per well in a 96-well plate (Biocoat, Corning) at a number of cells that reached subconfluence after 24 hours, and the gene solution was added to each well by lipofection according to the usage of Lipofectamine 3000 so that the cells were transfected with the gene and cultured at 37°C in a 5% carbon dioxide atmosphere for 24 hours. After removal of the culture solution, the cells were washed once with HEPES buffer, and 100 µL of GloSensor™ cAMP Reagent (Promega), adjusted to a predetermined concentration with HEPES buffer supplemented with FBS, was added to each well, and allowed to stand for 2 hours at room temperature. Then, 10 µL of 10 mM hexanal solution prepared in HEPES buffer supplemented with 300 µM CuCl2 and FBS was added to each well, and the changes in the response value of the luciferase activity over time were measured every minute immediately after the addition, thus obtaining the responses of approximately 400 human olfactory receptors to hexanal. The magnitude of the olfactory receptor response was expressed as a fold increase value obtained by dividing the maximum response value of luciferase activity that occurred after stimulation with hexanal by the luciferase activity before the stimulation with hexanal. Accordingly, OR2C1, OR2J2, OR2J3, OR5K1, OR5P3 and OR51E1 were identified as candidate olfactory receptors responsive to hexanal. After that, an aroma compound as a sample was prepared in HEPES buffer supplemented with 300 µM CuCl2 and FBS to a concentration 10 times the final concentration. 10 µL this aroma compound stimulation solution was added to each well, and the changes in the luciferase activity over time were measured every minute immediately after the addition to obtain the responses of approximately 400 human olfactory receptors to the aroma compound. The magnitude of the response of the olfactory receptor was expressed as a fold increase value determined by dividing the maximum luciferase activity value that occurred by the stimulation with the aroma compound by the luciferase activity before the stimulation with the aroma compound.
(§2) The responses of hexanal, which is an offensive odor-causing substance, to the olfactory receptors OR2C1, OR2J2, OR2J3, OR5K1, OR5P3 and OR51E1 were measured at various concentrations by the luciferase activity assay described above.

Assay [3] concerns olfactory receptor OR2J2. The description is as above. Format: cell-based, human. As to conditions: HEK293T cells expressing OR2J2; various hexanal concentrations; Figure 2. On the procedure:
as §1, §2

In assay [4] the test system is olfactory receptor OR2J3. The assay is described as above. It counts as cell-based, human. As to conditions: HEK293T cells expressing OR2J3; various hexanal concentrations; Figure 3. On the procedure:
as §1, §2

Assay [5] has as its system olfactory receptor OR51E1. Described as above. It counts as cell-based, human. As to conditions: HEK293T cells expressing OR51E1; various hexanal concentrations; Figure 6. How it is done:
as §1, §2

Assay [6] concerns olfactory receptor OR5K1. The assay is described as above. It counts as cell-based, human. As to conditions: HEK293T cells expressing OR5K1; various hexanal concentrations; Figure 4. How it is done: as §1, §2
Assay [7] deals with olfactory receptor OR5P3. The description is as above. It counts as cell-based, human. As to conditions: HEK293T cells expressing OR5P3; various hexanal concentrations; Figure 5. How it is done:
as §1, §2

For assay [8], the system named is cells that do not express olfactory receptors. Description: Luciferase assay, mock test. It counts as cell-based. On the procedure:
0.05 µg of human olfactory receptor gene expression vector, 0.01 µg of RTP1S vector, and 0.01 µg of firefly luciferase vector pGloSensor™-22F cAMP Plasmid (Promega) containing CMV promoter were dissolved in 10 µL of Opti-MEM I (Gibco) to prepare a gene solution (per well). HEK293T cells were seeded at 100 µL per well in a 96-well plate (Biocoat, Corning) at a number of cells that reached subconfluence after 24 hours, and the gene solution was added to each well by lipofection according to the usage of Lipofectamine 3000 so that the cells were transfected with the gene and cultured at 37°C in a 5% carbon dioxide atmosphere for 24 hours. […] Then, 10 µL of 10 mM hexanal solution prepared in HEPES buffer supplemented with 300 µM CuCl2 and FBS was added to each well, and the changes in the response value of the luciferase activity over time were measured every minute immediately after the addition, thus obtaining the responses of approximately 400 human olfactory receptors to hexanal. The magnitude of the olfactory receptor response was expressed as a fold increase value obtained by dividing the maximum response value of luciferase activity that occurred after stimulation with hexanal by the luciferase activity before the stimulation with hexanal. […]

`CC1=CCC2CC1C2(C)C` (stereo not drawn) [alpha-pinene]: in assay [1] (masking agent against hexanal, Non-patent literature 6), the “suppression of the OR2W1 response” value was “suppress the OR2W1 response”.
Regarding `CCCCCC=O` [hexanal], in assay [2], the “response of olfactory receptor OR2C1 to hexanal (fold increase value)” value was “concentration-dependent responses”. The “response of olfactory receptor OR2J2 to hexanal (fold increase value)” value in assay [3] is “concentration-dependent responses”. In addition, the “response of olfactory receptor OR2J3 to hexanal (fold increase value)” value in assay [4] is listed as “concentration-dependent responses”. In addition, the “response of olfactory receptor OR51E1 to hexanal (fold increase value)” value in assay [5] was “concentration-dependent responses”. For the same molecule, in assay [6], the “response of olfactory receptor OR5K1 to hexanal (fold increase value)” value is listed as “concentration-dependent responses”. Also, the “response of olfactory receptor OR5P3 to hexanal (fold increase value)” value in assay [7] is recorded as “concentration-dependent responses”. Moreover, in assay [8], the “response to hexanal in the mock test” value was “no response was observed”. Further, the “hexanal response of OR2W1” value in assay [1] (in vitro tests, prior art) is listed as “concentration-dependent hexanal response”.
